System: inducible human Hsp70
Test: Hsp70 RNA induction by quantitative PCR analysis
Type: cell-based
Settings: Ramos B cells, 500 nM compound, 6 hours, Hsp70 RNA relative to gapdh; for fold induction at 0.5 µM: Homo sapiens, read-out: fold induction over DMSO; for % induction relative to Compound X: Compound X set to 100%
Protocol: The ability of the compounds of the invention to induce Hsp70 RNA induction by quantitative PCR analysis was examined. Ramos B cells were treated with 500 nM each compound for 6 hours and the RNA was isolated from the cells. Quantitative PCR was performed as described below:
Details for Quantitative PCR are as follows:
500 ng of RNA from each sample was used for cDNA synthesis using iScript cDNA Synthesis Kit (Biorad, Cat#170-8891). 1 ul of cDNA mixture was used with the iQ SYBR Green Supermix (Biorad, Cat#170-8882) to perform quantitative PCR in an iCycler machine (Biorad) using standard protocols. QPCR for each sample/time point was performed in duplicate. The following primers for inducible human Hsp70 and gapdh were used: […]
Ct values were obtained from the iCycler program and used in an equation (2^−ΔΔCT) for determining the amount of target relative to gapdh expression. This compares the relative expression of Hsp70 to the corresponding levels of gapdh in each sample. Duplicate wells were averaged. The amount of N-Malonyl-bis(N′-methyl-N′ thiobenzoylhydrazide) (Compound X) induction of Hsp70 was set to 100% and the percent of induction of Hsp70 by the compounds of the invention was determined relative to 100%.

| Compound | fold induction at 0.5 µM | % induction relative to Compound X |
| --- | --- | --- |
| CN(/N=C/c1cccc(/C=N/N(C)C(=S)c2ccccc2)n1)C(=S)c1ccccc1 [Compound 16, (N′,N″E,N′,N″E)-N′,N″-(pyridine-2,6-diylbis(methan-1-yl-1-ylidene))bis(N-methylbenzothiohydrazide)] | 0.48 | 0.18% |
| CN(/N=C/c1cccc(/C=N/N(C)C(=S)c2ccccc2)c1)C(=S)c1ccccc1 [Compound 17, (N′,N″E,N′,N″E)-N′,N″-(1,3-phenylenebis(methan-1-yl-1-ylidene))bis(N-methylbenzothiohydrazide)] | 0.54 | 0.20% |
| CN(/N=C1\CCC/C(=N\N(C)C(=S)c2ccccc2)C1)C(=S)c1ccccc1 [Compound 22, (N′,N″E,N′,N″E)-N′,N″-(cyclohexane-1,3-diylidene)bis(N-methylbenzothiohydrazide)] | 0.16 | 0.06% |
